Reference: patent US20020052295A1, “Diacyl derivatives of propylene diamine having herbicidal activity” (priority 1999, published 2002)

Assays:
Settings in all cases: lowest tested rate giving 80% or greater inhibition, approx. 14 days after planting and treating, greenhouse
CONAR = assay: Pre-emergence herbicidal activity on CONAR (field bindweed); type: in vivo, Convolvulus arvensis
In short: (§1)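 GR80 values come from percent inhibition relative to untreated plants, rated roughly 14 days after planting and treating, with rates up to typically 1000 g/ha. Compound was sprayed onto the soil over freshly covered seeds as a dilution in 50:50 acetone/water; pots kept in greenhouse at 30/21° C. day/night after 0.64 cm overhead watering.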

PANMI = assay: Pre-emergence herbicidal activity on PANMI (wild proso millet); type: in vivo, Panicum miliaceum
In short: as §1

SORVU = assay: Pre-emergence herbicidal activity on SORVU (shattercane); type: in vivo, Sorghum vulgare
Excerpt: (§2) All such uses, and the biological activity enabling such uses, are embraced by the term “herbicidal” herein. Tables 15 and 16 summarize results of tests conducted as described below to determine the pre-emergence herbicidal activity, in the form of a GR80 value, of illustrative compounds of this invention. […] Where herbicidal activity was evident but 80% inhibition was not achieved at the highest rate tested (typically 1000 g/ha), an asterisk (*) is shown in the following tables. Herbicidal activity evident in the form of symptoms of phytotoxicity, in the absence of at least 80% inhibition at any rate, is indicated in the tables by “phyto”. A blank cell in the following tables indicates no herbicidal or phytotoxic response at any rate tested.
(§3) The pre-emergence tests were conducted by the following procedure. Topsoil was sieved to pass through a 1.27 cm screen. Fertilizer was added to the topsoil and the mixture was then sterilized by heating. The topsoil mixture was placed in a pot and compacted to a depth of 1.0 to 1.25 cm from the top of the pot. Seeds of each of several monocotyledonous and dicotyledonous annual plant species were placed on top of the soil. Additional soil was subsequently placed over the seeds to level-fill the pot. A known amount of each test compound dissolved or suspended in an appropriate organic solvent was diluted with a 50:50 mix of acetone and water and applied to the surface of the soil. After treatment the plants were placed in a greenhouse with a 30/21° C. day/night temperature regime where they received 0.64 cm of overhead irrigation. All subsequent watering consisted of a light overhead mist and/or subirrigation as needed for germination and growth.
(§4) Approximately 14 days after planting and treating, the plants were observed and herbicidal efficacy recorded as percent inhibition by comparison with untreated plants.
(§5) The plant species usually regarded as weeds which were utilized in the tests are identified in the tables below according to the following legend, in which “d” indicates a dicotyledonous species and “m” a monocotyledonous species. All monocotyledonous species included in the tests herein are grasses.

DATST = assay: Pre-emergence herbicidal activity on DATST (jimsonweed); type: in vivo, Datura stramonium
In short: as §1

SETFA = assay: Pre-emergence herbicidal activity on SETFA (giant foxtail); type: in vivo, Setaria faberi
In short: as §1

SOLNI = assay: Pre-emergence herbicidal activity on SOLNI (black nightshade); type: in vivo, Solanum nigrum
In short: as §1

DIGSA = assay: Pre-emergence herbicidal activity on DIGSA (large crabgrass); type: in vivo, Digitaria sanguinalis
In short: as §1

AMARE = assay: Pre-emergence herbicidal activity on AMARE (redroot pigweed); type: in vivo, Amaranthus retroflexus
In short: as §1

POROL = assay: Pre-emergence herbicidal activity on POROL (common purslane); type: in vivo, Portulaca oleracea
In short: as §1

CHEAL = assay: Pre-emergence herbicidal activity on CHEAL (common lambsquarters); type: in vivo, Chenopodium album
In short: as §1

SORHA = assay: Pre-emergence herbicidal activity on SORHA (johnsongrass, seedling); type: in vivo, Sorghum halepense
In short: as §1

ECHCG = assay: Pre-emergence herbicidal activity on ECHCG (barnyardgrass); type: in vivo, Echinochloa crus-galli
Excerpt: as §2, §3, §4, §5

BRAPP = assay: Pre-emergence herbicidal activity on BRAPP (broadleaf signalgrass); type: in vivo, Brachiaria platyphylla
In short: as §1

PANDI = assay: Pre-emergence herbicidal activity on PANDI (fall panicum); type: in vivo, Panicum dichotomiflorum
In short: as §1

CIRAR = assay: Pre-emergence herbicidal activity on CIRAR (canada thistle, seedling); type: in vivo, Cirsium arvense
In short: as §1

ABUTH = assay: Pre-emergence herbicidal activity on ABUTH (velvetleaf); type: in vivo, Abutilon theophrasti
In short: as §1

SMILES | Pre-emergence activity (GR80) on CONAR (CONAR) | Pre-emergence activity (GR80) on PANMI (PANMI) | Pre-emergence activity (GR80) on SORVU (SORVU) | Pre-emergence activity (GR80) on DATST (DATST) | Pre-emergence activity (GR80) on SETFA (SETFA) | Pre-emergence activity (GR80) on SOLNI (SOLNI) | Pre-emergence activity (GR80) on DIGSA (DIGSA) | Pre-emergence activity (GR80) on AMARE (AMARE) | Pre-emergence activity (GR80) on PORAL (POROL) | Pre-emergence activity (GR80) on CHEAL (CHEAL) | Pre-emergence activity (GR80) on SORHA (SORHA) | Pre-emergence activity (GR80) on ECHCG (ECHCG) | Pre-emergence activity (GR80) on BRAPP (BRAPP) | Pre-emergence activity (GR80) on PANDI (PANDI) | Pre-emergence activity (GR80) on CIRAR (CIRAR) | Pre-emergence activity (GR80) on ABUTH (ABUTH)
Cc1ccc(Cl)cc1C(=O)NC(C)CNC(=O)c1cccc(C(F)(F)F)c1 (stereo not shown) [Example 47] | 750 g/ha | 250 g/ha | phyto | 250 g/ha | 250 g/ha | 125 g/ha | 125 g/ha | 64 g/ha | 125 g/ha | 64 g/ha | 750 g/ha | phyto | 500 g/ha | 250 g/ha | 125 g/ha | 250 g/ha
Cc1c(F)cccc1C(=O)NC(C)CNC(=O)c1cccc(C(F)(F)F)c1 (stereo not shown) [Example 38] | 250 g/ha | 250 g/ha | * (Where herbicidal activity was evident but 80% inhibition was not achieved at the highest rate tested (typically 1000 g/ha), an asterisk (*) is shown) | 125 g/ha | 250 g/ha | 250 g/ha | 125 g/ha | 32 g/ha | 32 g/ha | 64 g/ha | 500 g/ha | 1000 g/ha | 250 g/ha | 250 g/ha | 125 g/ha | 125 g/ha
Cc1c(Cl)cccc1C(=O)NC(C)CNC(=O)c1cccc(C(F)(F)F)c1 (stereo not shown) [Example 51] | 1000 g/ha | 250 g/ha | phyto | 250 g/ha | 250 g/ha | 125 g/ha | 64 g/ha | 125 g/ha | 64 g/ha | 64 g/ha | 1000 g/ha | * (Where herbicidal activity was evident but 80% inhibition was not achieved at the highest rate tested (typically 1000 g/ha), an asterisk (*) is shown) | 500 g/ha | 250 g/ha | 125 g/ha | 250 g/ha
CC(CNC(=O)c1cccc(C(F)(F)F)c1)NC(=O)c1cccc(Cl)c1F (stereo not shown) [Example 49] | 750 g/ha | 125 g/ha | * (Where herbicidal activity was evident but 80% inhibition was not achieved at the highest rate tested (typically 1000 g/ha), an asterisk (*) is shown) | 64 g/ha | 125 g/ha | 125 g/ha | 64 g/ha | 64 g/ha | 64 g/ha | 64 g/ha | 250 g/ha | 500 g/ha | 500 g/ha | 64 g/ha | 64 g/ha | 64 g/ha
